Source: PMC12656565, “In Vitro and Ultrastructural Evaluation of the Cytotoxic and Antileishmanial Activities of Thiosemicarbazone Compounds Against Promastigotes and Axenic Amastigotes of Leishmania infantum” (Tropical Medicine and Infectious Disease, 2025)
Peptide text beside a SMILES is read from it. * marks the point of attachment. Cbz = O=C(OCc1ccccc1)*

Columns and labels:
[1] = test system: axenic amastigote forms of Leishmania amazonensis; set-up: method as in ref [22] Oliveira et al.; settings: ref [22] Oliveira et al.; cited from earlier work
Leishmania infantum = test system: Leishmania infantum; set-up: method as in PMID 35861942, PMID 14982775; settings: against Leishmania infantum, similar in vitro conditions; ref [25],[29]; cited from earlier work
[2] = test system: L. infantum promastigote cells; test: Mitochondrial membrane potential (Rhodamine 123, flow cytometry); format: cell-based, Leishmania infantum
Method: To evaluate the effects of compounds on the mitochondrial membrane potential (ΔΨm) of Leishmania infantum, the cationic probe Rhodamine 123 (Rod 123) was used through quantitative flow cytometry analysis. […] After incubation, cells were centrifuged at 3000× g for 5 min, and supernatants discarded. […] Hydrogen peroxide (H2O2) at 1 μM was used as positive control, previously described in the literature as an inducer of mitochondrial potential loss. Cells were analyzed by flow cytometry on the FACSCalibur equipment (Becton & Dickinson, San José, CA, USA), with excitation at 488 nm and detection at 505/534 nm. Fifty thousand events per sample were acquired. Data were expressed as percentage of cells stained with Rhodamine 123 for each tested condition. Fluorescence variation was quantified by Variation Index (VI), calculated by the equation: VI = (MT − MC)/MC, where MT corresponds to the median fluorescence of treated cells and MC to the median of control cells (untreated).

[3] = test system: Leishmania infantum promastigote forms (MHOM/BR/BH46); test: In vitro leishmanicidal activity against promastigotes (Neubauer chamber counting); format: cell-based; settings: for IC50 / inhibition at 20 µM: Leishmania infantum; for IC50: 72 h, L. infantum promastigotes, linear regression; for inhibition at 20 µM: lowest concentration tested in the promastigote series (20–400 µM)
Method: For this study, the Leishmania infantum strain MHOM/BR/BH46 was used. It was maintained by cryopreservation in liquid nitrogen, using a preservation solution containing 10% dimethyl sulfoxide (DMSO) and 90% fetal bovine serum (FBS). For the experiments, the strain was reactivated and maintained in continuous culture in modified Schneider’s Drosophila medium, supplemented with 10% heat-inactivated fetal bovine serum (FBS), at a temperature of 26 °C, with subcultures performed every 72 h. The promastigote form was used for the in vitro assays, with growth observed and monitored through parasite counting using a Neubauer chamber (iNCYTO CChip DHC-N01, Cheonan-Si, Republic of Korea).
The in vitro leishmanicidal activity of compounds LT-70, LT-73, LT-75, LT-89, and amphotericin B was determined as described by Aliança et al., with adaptations. Promastigote forms of L. infantum (MHOM/BR/BH46) were maintained in Schneider’s medium supplemented with 10% fetal bovine serum (FBS), incubated at 26 °C. For experiments, parasites were subcultured and grown for 72 h until reaching stationary phase. Subsequently, they were adjusted to a concentration of 1 × 10^6 parasites/mL. Cultures were then incubated in the presence of the tested compounds (20–400 µM) and Amphotericin B was tested from 0.01 to 1.0 µM in preliminary range-finding assays, confirming an IC50 of 0.04 µM, both prepared in DMSO (final DMSO concentration < 1%), as well as a control containing only the diluent. Analyses were performed in technical triplicate and biological duplicate. Cultures were maintained at 26 °C for 72 h, with daily parasite counts performed using a Neubauer chamber. The median inhibitory concentration (IC50) was determined after 72 h by linear regression using SPSS 25.0 software for Mac. All assays were performed in 24-well flat-bottom plates (2 mL final volume per well), with parasite inoculum verified by Neubauer counting chamber. The compounds LT-73 and LT-75 were selected based on their best leishmanicidal performance and respective selectivity index (SI), calculated as the ratio between the cytotoxic concentration for 50% of host cells (CC50) and the IC50 obtained for parasites. […] IC50 and CC50 values were obtained by linear regression using […]. This method has been validated in our previous thiosemicarbazone publications. Each assay was conducted in triplicate across two independent biological experiments performed on separate days to ensure reproducibility and minimize batch effects. MTT was selected for consistency with the validated thiosemicarbazone protocol by Jacob et al., ensuring methodological coherence with prior data.

J774.A1 macrophages = test system: J774.A1 macrophages; set-up: method as in PMID 33590474; settings: highest concentration tested 75 µM, previously determined in collaboration with Jacob et al., ref [20]; cited from earlier work

| Structure (SMILES) | IC50 [3] | inhibition at 20 µM [3] | CC50 (J774.A1 macrophages) | also measured |
| --- | --- | --- | --- | --- |
| CC(C)[C@H](NC(=O)OCc1ccccc1)C(=O)N[C@H](C=O)Cc1ccccc1 [MDL28170] (Cbz-Val-Phe-aldehyde) |  |  |  | IC50 [1]: 13.5 µM |
| CCCCCCCCCCCCCCCCOP(=O)([O-])OCC[N+](C)(C)C [miltefosine] |  |  |  | IC50 (Leishmania infantum): 8 to 12 µM |
| OO [Hydrogen Peroxide (H2O2), Hydrogen peroxide, reference compound] |  |  |  | Mean (Rho 123 fluorescence) ([2]; positive control, H2O2 at 1 μM): 581 ± 35; Variation (Variation Index, VI = (MT − MC)/MC) ([2]; positive control, H2O2 at 1 μM): −0.18 ± 0.08; Variability Index (VI), range ([2]; range over the tested concentrations (1× and 2× IC50; H2O2 control)): −0.018 to −0.73 |
| C=CCNC(=S)N/N=C\c1c[nH]c2c(C)cccc12 [LT-89] | < 20 µM | 100% | 60 ± 4 µM | SI (CC50/IC50) ([3]; CC50 J774 macrophages / IC50 promastigotes): 4.3 |
| N#Cc1ccc2[nH]cc(/C=N/NC(=S)Nc3ccccc3)c2c1 [LT-70] | < 20 µM | 100% | 64 ± 5 µM |  |
